Measurements reported in the supplement of paper PMC10307832.

How the values were obtained:
Experiment in all cases: relative viability (nuclei count vs DMSO), 5 days (fraction); higher = more cells survive
BAY61-3606 + Decitabine = compound: COC1=C(C=C(C=C1)C2=CC3=NC=CN3C(=N2)NC4=C(C=CC=N4)C(=O)N)OC [BAY61-3606] + Nc1ncn([C@H]2C[C@H](O)[C@@H](CO)O2)c(=O)n1 [Decitabine] (partner 2 µM)
Method in brief: (§1)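 Values are medians from duplicate plates. Each reflects relative viability, defined as the nuclei count of treated wells over that of vehicle wells. Lung cancer cell lines in 1536-well plates were pin-tool dosed one day after seeding with one drug alone or with a fixed anchor-drug dose plus five library-drug doses (not always all listed) in √10 steps, then fixed, stained and imaged at 4× after 5 days.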

Doxorubicin + Navitoclax = compound: COc1cccc2c1C(=O)c1c(O)c3c(c(O)c1C2=O)C[C@@](O)(C(=O)CO)C[C@@H]3O[C@H]1C[C@H](N)[C@H](O)[C@H](C)O1 [Doxorubicin] + CC1(C)CCC(c2ccc(Cl)cc2)=C(CN2CCN(c3ccc(C(=O)NS(=O)(=O)c4ccc(N[C@H](CCN5CCOCC5)CSc5ccccc5)c(S(=O)(=O)C(F)(F)F)c4)cc3)CC2)C1 [Navitoclax] (partner 0.5 µM)
Method in brief: as §1

BAY61-3606 + Foretinib = compound: COC1=C(C=C(C=C1)C2=CC3=NC=CN3C(=N2)NC4=C(C=CC=N4)C(=O)N)OC [BAY61-3606] + COc1cc2c(Oc3ccc(NC(=O)C4(C(=O)Nc5ccc(F)cc5)CC4)cc3F)ccnc2cc1OCCCN1CCOCC1 [Foretinib] (partner 0.25 µM)
Method in brief: as §1

Doxorubicin + Decitabine = compound: COc1cccc2c1C(=O)c1c(O)c3c(c(O)c1C2=O)C[C@@](O)(C(=O)CO)C[C@@H]3O[C@H]1C[C@H](N)[C@H](O)[C@H](C)O1 [Doxorubicin] + Nc1ncn([C@H]2C[C@H](O)[C@@H](CO)O2)c(=O)n1 [Decitabine] (partner 2 µM)
Method in brief: as §1

Cell Line | relative viability (BAY61-3606 + Decitabine; first compound 0.02 µM) | relative viability (BAY61-3606 + Decitabine; first compound 0.06325 µM) | relative viability (BAY61-3606 + Decitabine; first compound 0.2 µM) | relative viability (BAY61-3606 + Decitabine; first compound 0.6325 µM) | relative viability (BAY61-3606 + Decitabine; first compound 2 µM) | relative viability (Doxorubicin + Navitoclax; first compound 0.001 µM) | relative viability (Doxorubicin + Navitoclax; first compound 0.003162 µM) | relative viability (Doxorubicin + Navitoclax; first compound 0.01 µM) | relative viability (Doxorubicin + Navitoclax; first compound 0.03162 µM) | relative viability (Doxorubicin + Navitoclax; first compound 0.1 µM) | relative viability (BAY61-3606 + Foretinib; first compound 0.02 µM) | relative viability (BAY61-3606 + Foretinib; first compound 0.06325 µM) | relative viability (BAY61-3606 + Foretinib; first compound 0.2 µM) | relative viability (BAY61-3606 + Foretinib; first compound 0.6325 µM) | relative viability (BAY61-3606 + Foretinib; first compound 2 µM) | relative viability (Doxorubicin + Decitabine; first compound 0.001 µM) | relative viability (Doxorubicin + Decitabine; first compound 0.003162 µM) | relative viability (Doxorubicin + Decitabine; first compound 0.01 µM) | relative viability (Doxorubicin + Decitabine; first compound 0.03162 µM) | relative viability (Doxorubicin + Decitabine; first compound 0.1 µM)
NCI-H1651 | 0.621 | 0.539 | 0.555 | 0.568 | 0.481 | 0.991 | 1.19 | 0.801 | 0.436 | 0.204 | 0.886 | 0.713 | 0.765 | 0.88 | 0.739 | 0.534 | 0.63 | 0.638 | 0.506 | 0.571
NCI-H2126 | 0.631 | 0.606 | 0.583 | 0.623 | 0.555 | 0.853 | 0.826 | 0.864 | 0.884 | 0.928 | 1.4 | 1.21 | 1.06 | 1.13 | 0.959 | 0.531 | 0.608 | 0.562 | 0.57 | 0.587
RERF-LC-KJ | 0.766 | 0.717 | 0.654 | 0.659 | 0.556 | 1.05 | 0.765 | 1.12 | – | 1.05 | 0.899 | 0.922 | 0.828 | 0.886 | 0.779 | 0.78 | 0.671 | 0.598 | 0.334 | 0.282
LXF-289 | 0.399 | 0.402 | 0.411 | 0.396 | 0.405 | 0.935 | 0.939 | 0.873 | 0.983 | 0.944 | 0.966 | 0.971 | 0.978 | 0.988 | 0.944 | 0.41 | 0.413 | 0.395 | 0.317 | 0.392
NCI-H838 | 0.448 | 0.508 | 0.47 | 0.454 | 0.393 | 1.12 | 1.17 | 1.12 | 0.905 | 0.423 | 0.973 | 0.991 | 0.947 | 1.06 | 0.955 | 0.485 | 0.47 | 0.385 | 0.328 | 0.292
HCC-827 | 0.327 | 0.321 | 0.352 | 0.317 | 0.308 | 1.03 | 1.03 | 1.06 | 1.1 | 1.03 | 1.04 | 1.01 | 1.11 | 1.07 | 1.03 | 0.339 | 0.328 | 0.333 | 0.264 | 0.262
NCI-H460 | 0.508 | 0.572 | 0.43 | 0.448 | 0.382 | 1.07 | 1.18 | 0.945 | 0.0444 | 0.0158 | 1.05 | 1 | 1.05 | 0.973 | 0.945 | 0.445 | 0.375 | 0.282 | 0.0686 | 0.0323
NCI-H3122 | 0.463 | 0.559 | 0.494 | 0.347 | 0.511 | 1.05 | 1.01 | 0.973 | 1.02 | 1.02 | 0.952 | 1.07 | 0.94 | 0.962 | 0.969 | 0.391 | 0.514 | 0.389 | 0.384 | 0.437
NCI-H2347 | 0.731 | 0.63 | 0.599 | 0.698 | 0.666 | 0.628 | 0.768 | 0.77 | 0.71 | 0.85 | 1.03 | 0.601 | 1.46 | 0.856 | 1.17 | 0.612 | 0.71 | 0.646 | 0.539 | 0.557
NCI-H1650 | 0.449 | 0.444 | 0.432 | 0.424 | 0.387 | 1.11 | 1.18 | 1.11 | 0.33 | 0.203 | 1.14 | 1.02 | 1.02 | 1.34 | 0.498 | 0.396 | 0.314 | 0.361 | 0.245 | 0.135
NCI-H1944 | 0.408 | 0.466 | 0.424 | 0.434 | 0.327 | 1.05 | 1.13 | 1.03 | 0.977 | 1.19 | 0.912 | 0.815 | 0.858 | 0.886 | 0.396 | 0.441 | 0.506 | 0.403 | 0.372 | 0.439
EKVX | 0.362 | 0.344 | 0.318 | 0.349 | 0.328 | 0.929 | 1.09 | 1 | 0.853 | 0.61 | 0.986 | 0.673 | 0.768 | 0.978 | 0.695 | 0.389 | 0.34 | 0.307 | 0.296 | 0.375
NCI-H1355 | 0.391 | 0.377 | 0.389 | 0.359 | 0.361 | 0.982 | 1.1 | 0.911 | 0.904 | 1.06 | 0.981 | 0.911 | 0.922 | 0.992 | 0.761 | 0.379 | 0.424 | 0.383 | 0.382 | 0.349
NCI-H596 | 1.06 | 0.967 | 1.14 | 0.965 | 1.08 | 0.931 | 0.963 | 0.903 | 0.832 | 0.972 | 0.768 | 0.761 | 0.841 | 0.844 | 0.726 | 1.97 | 1.09 | 1 | 0.86 | 1.08
SK-MES-1 | 0.37 | 0.342 | 0.377 | 0.382 | 0.348 | 1.28 | 0.745 | 1.09 | 1.01 | 0.76 | 1.08 | 0.918 | 0.85 | 0.96 | 0.839 | 0.353 | 0.328 | 0.261 | 0.196 | 0.194
